Each block holds one compound with its values, some of them ahead of it.
Key:
Format in all cases: binding
[1] = target: T1, KRASGTP/S39C lite (Homo sapiens, UniProt P01116, C118S/C51S/C80L/G12V/S39C); assay: Conjugate formation (cross-linking) assessed by SDS-PAGE
T1 construct: KRASGTP/S39C lite (in house; residues 1-169 containing G12V/S39C/C51S/C80L/C118S); made in house
Procedure: General Protocol: This protocol describes a method for the formation of target protein-compound conjugates.
(§1) Experimental Protocol: A 1:2 molar ratio of target protein and compound are mixed together in 12.5 mM HEPES pH 7.4, 75 mM NaCl buffer containing 2% DMSO. The reaction is incubated at 37° C. for 30 min, followed by overnight incubation at room temperature. Cross-linking efficiency is assessed by SDS-PAGE gel. Conjugates migrate slower than non-cross-linked target protein. For thiol reactive compounds, the Cys specific attachment of the compound to the target protein can be further confirmed by SDS-PAGE after the addition of 100 mM DTT to the reaction mixture, which reduces the conjugate back into its components.
Experimental Protocol: A 1:2 molar ratio of KRASGTP/S39C lite and C2-FK506 are mixed together in 12.5 mM HEPES pH 7.4, 75 mM NaCl buffer containing 2% DMSO. The reaction is incubated at 37° C. for 30 min, followed by overnight incubation at room temperature. Cross-linking efficiency is assessed by SDS-PAGE gel. Attachment of C2-FK506 to Cysteine 39 on KRASGTP/S39C lite is also assessed by incubation of the reaction mixture with 100 mM DTT.

[2] = target: T2, KRASGTP/S39C lite and FKBP12 (Homo sapiens, UniProt P01116+P62942, C118S/C51S/C80L/G12V/S39C); assay: Ternary complex formation by SEC and SDS-PAGE; settings: 1:2:2 compound:FKBP12:KRAS, SEC profile and SDS-PAGE of elution peaks
T2 construct: KRASGTP/S39C lite (in house; residues 1-169 containing G12V/S39C/C51S/C80L/C118S); made in house
Procedure: (§2) A 1:2:2 molar ratio of compound, presenter protein, and target protein are mixed together in 12.5 mM HEPES pH 7.4, 75 mM NaCl buffer containing 2% DMSO. The reaction is incubated at 37° C. for 30 min, followed by overnight incubation at room temperature. Pure complex is isolated by Size Exclusion Chromatography (SEC) purification. The reaction mixture is directly injected on a Superdex 75 column (CV 120 mL) pre-equilibrated with buffer containing 12.5 mM HEPES pH 7.4, 75 mM NaCl. Complex elutes at a higher molecular weight than unreacted target protein and presenter protein. To confirm presence of complex in the elution peak, samples are assessed by SDS-PAGE.
Experimental Protocol: A 1:2:2 molar ratio of C2-Holt, FKBP12, and KRASGTP/S39C lite are mixed together in 12.5 mM HEPES pH 7.4, 75 mM NaCl buffer containing 2% DMSO. The reaction is incubated at 37° C. for 30 min, followed by overnight incubation at room temperature. Pure complex is isolated by Size Exclusion Chromatography (SEC) purification. The reaction mixture is directly injected on a Superdex 75 column (CV 120 mL) pre-equilibrated with buffer containing 12.5 mM HEPES pH 7.4, 75 mM NaCl. […] To confirm the presence of KRASGTP/S39C lite and FKBP12 in the elution peak, samples are also assessed by SDS-PAGE.

[3] = target: T3, PTP1BS187C lite and FKBP12 (Homo sapiens, UniProt P18031+P62942, C121S/C32S/C92V/S187C); assay: Ternary complex formation by SEC and SDS-PAGE; settings: 1:3:3 compound:FKBP12:PTP1B, SEC profile and SDS-PAGE of elution peaks
T3 construct: (in house; residues 1-293 containing C32S/C92V/C121S/S187C); made in house
Procedure: as §2
Equipment: Mini-PROTEAN TGX Gel (Bio-Rad), Superdex 75 (GE Healthcare, CV 120 mL) Experimental Protocol: A 1:3:3 molar ratio of C3SLF, FKBP12, and PTPIBswc lite are mixed together in 12.5 mM HEPES pH 7.4, 75 mM NaCl buffer containing 4% DMSO. The reaction is incubated at 37° C. for 30 min, followed by overnight incubation at room temperature. Pure complex is isolated by Size Exclusion Chromatography (SEC) purification. The reaction mixture is directly injected on a Superdex 75 column (CV 120 mL) pre-equilibrated with buffer containing 12.5 mM HEPES pH 7.4, 75 mM NaCl. […] To confirm the presence of PTP1BS187C lite and FKBP12 in the elution peak, samples are also assessed by SDS-PAGE. […]

[4] = target: T4, KRASGTP/G12C (Homo sapiens, UniProt P01116+P62942, G12C); assay: Presenter dependency of disulfide cross-linking by mass spectrometry; settings: 2 μM KRAS, 10 μM ligand, 4 hours room temperature, MS
T4 construct: KRASGTP/G12C (in-house, residues 1-169); made in house
Procedure: This protocol describes methods to analyzing cross-linking efficiency using mass spectrometry and gel shift assay in effort to assess the presenter dependency of conjugate formation.
Experimental protocol: In order to follow the kinetics of disulfide crosslinking reactions, Agilent 6230 TOF-LC/MS and Agilent 1260 HPLC instruments employing a AdvanceBio RP-mAb C4 column (2.1×100 mm, 3.5 μm) and equipped with an auto-sampler were used. HPLC grade acetonitrile and water (each containing 1.0 mM ammonium formate and 1% formic acid by volume) were used as mobile phase with the following ramp: 0.6 ml/min flow rate, water:acetonitrile=95:5 from 0.0 to 13.0 min ramping to water:acetonitrile=5:95 from 13.0 to 17.0 min. Total time=17.0 min.
All crosslinking reactions were performed in 1.5 mL amber colored glass vials equipped with 0.5 mL glass inserts. A water-soluble peptide (SEQ ID NO: 1: […]) was employed as an internal standard. Although the actual sequence of the internal standard is inconsequential, choice of amino acid residues were critical to avoid interference in the crosslinking assays. […] All reactions and standard solutions were prepared in HEPES (pH 7.4, 1.0 mM MgCl2) buffer.
Prior to every reaction, a standard curve was obtained for the individual components using a series of standard solutions (an example of standard curve analysis for FKBP12 is shown in Table 3 below). Using the data from standard curve, μmol of protein samples were plotted against the ratio of areas (sample:std) and a linear fit (y=mx+c) was employed to obtain the slope and intercept. The value of slope and intercept involved in these standard curves were accounted for during evaluation of the substrate and product concentration before and during the course of the reaction. For every substrate/product, an initial injection was followed up by a blank injection to verify presence of any residual protein/reagents. Based on this analysis the sequence of auto-sampler can be adjusted to included appropriate number of blank injections for removal of residual components, if any. The MS spectra were analyzed using Agilent MassHunter v B.07.0 software.
In a representative experiment to assess the presenter dependency of ligand cross-linking on the target protein, KRASGTP/G12C and either C3 or C4SLF ligand were incubated in the presence or absence of FKBP12 at concentrations of 2 μM KRAS, 10 μM FKBP12, 10 μM C3 or C4SLF for 4 hours at room temperature in 12.5 mM HEPES pH 7.4, 75 mM NaCl, 1 mM MgCl2, 3% DMSO. Analysis of the amount of KRAS undergoing disulfide cross-linking with the ligand using the method above.

[5] = target: T4, KRASGTP/G12C; assay: Cross-linking gel shift assay (12% SDS-PAGE); settings: 60 μM KRAS, 180 μM FKBP12, 180 μM ligand, quenched by MMTS
Procedure: In parallel to mass spectrometry analysis, cross-linking reactions with C3 or […] were subjected to gel shift assay using 12% SDS-PAGE in the presence or absence of FKBP12 at the same experimental condition described above except that cross-linking reactions were set up at higher concentrations (60 μM KRAS, 180 μM FKBP12, and 180 μM C3 or […]) and they were quenched by MMTS to terminate the reaction.

[6] = target: T5, KRASGDP/S39C lite and CypAC52S (Homo sapiens, UniProt P01116+P62937, C118S/C51S/C52S/C80L/G12V/S39C); assay: Ternary complex formation by SEC and SDS-PAGE; settings: 1:2:2 compound:CypAC52S:KRAS, SEC profile and SDS-PAGE of elution peaks
T5 construct: KRASGDP/S39C lite (in house; residues 1-169 containing G12V/S39C/C51S/C80L/C118S); made in house
Procedure: as §2
Equipment: Mini-PROTEAN TGX Gel (Bio-Rad), Superdex 75 (GE Healthcare, CV 120 mL) Experimental Protocol: A 1:2:2 molar ratio of SFAC4DS, CypAC52S, and KRASGDP/S39C lite are mixed together in 12.5 mM HEPES pH 7.4, 75 mM NaCl buffer containing 2% DMSO. The reaction is incubated at 37° C. for 30 min, followed by overnight incubation at room temperature. Pure complex is isolated by Size Exclusion Chromatography (SEC) purification. The reaction mixture is directly injected on a Superdex 75 column (CV 120 mL) pre-equilibrated with buffer containing 12.5 mM HEPES pH 7.4, 75 mM NaCl. […] To confirm the presence of KRASGDP/S39C lite and CypAC52S in the elution peak, samples are also assessed by SDS-PAGE.

[7] = target: Wild-type CypA (Homo sapiens, UniProt P62937); assay: Presenter cross-linking assessed by SDS-PAGE
Procedure: (§3) Experimental Protocol: A 1:2 molar ratio of KRASGTP/G12C lite and SFAX9DS are mixed together in 12.5 mM HEPES pH 7.4, 75 mM NaCl buffer containing 2% DMSO. The reaction is incubated at 37° C. for 30 min, followed by overnight incubation at room temperature. Cross-linking efficiency is assessed by SDS-PAGE gel. […] Cysteine 52 as a reactive Cysteine on CypA and was mutated to Serine to abrogate presenter cross-linking.

[8] = target: T6, CypAC52S (Homo sapiens, UniProt P62937, C52S); assay: Presenter cross-linking assessed by SDS-PAGE; settings: CypA with Cysteine 52 mutated to Serine
T6 construct: made in house
Procedure: as §3

[9] = target: T7, KRASGTP/G12C lite (Homo sapiens, UniProt P01116, C118S/C51S/C80L/G12C); assay: Conjugate formation (cross-linking) assessed by SDS-PAGE; settings: 1:2 molar ratio protein:compound, 37° C. 30 min then overnight room temperature
T7 construct: KRASGTP/G12C lite (in house; residues 1-169 containing G12C/C51S/C80L/C118S); made in house
Procedure: as §1, §3

Sequence of Wild-type CypA (P62937 whole entry): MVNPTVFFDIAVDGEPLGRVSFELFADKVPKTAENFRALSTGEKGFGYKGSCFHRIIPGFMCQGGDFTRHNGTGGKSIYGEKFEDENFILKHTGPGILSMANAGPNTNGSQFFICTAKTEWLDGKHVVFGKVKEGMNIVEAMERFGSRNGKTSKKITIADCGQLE
T3 sequence (P18031 1-293 C32S/C92V/C121S/S187C limits assumed): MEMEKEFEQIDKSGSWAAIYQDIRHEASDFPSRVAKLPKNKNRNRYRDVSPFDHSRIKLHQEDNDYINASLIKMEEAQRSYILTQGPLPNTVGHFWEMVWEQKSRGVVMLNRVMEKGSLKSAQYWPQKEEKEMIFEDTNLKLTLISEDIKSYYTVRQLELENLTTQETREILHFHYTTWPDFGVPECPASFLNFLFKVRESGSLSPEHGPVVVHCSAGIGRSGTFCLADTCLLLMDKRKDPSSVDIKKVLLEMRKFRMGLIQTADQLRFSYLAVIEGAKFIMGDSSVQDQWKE
T3 sequence (P62942 whole entry, the tested form may be a part): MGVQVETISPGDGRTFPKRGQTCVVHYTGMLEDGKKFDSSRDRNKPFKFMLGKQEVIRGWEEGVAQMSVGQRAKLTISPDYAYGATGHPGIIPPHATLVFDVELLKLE
T6 sequence (P62937 whole entry C52S): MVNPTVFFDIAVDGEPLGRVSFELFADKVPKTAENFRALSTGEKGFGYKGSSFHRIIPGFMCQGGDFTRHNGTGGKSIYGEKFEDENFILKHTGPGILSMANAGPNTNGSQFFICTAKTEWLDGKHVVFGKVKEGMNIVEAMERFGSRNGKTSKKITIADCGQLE

- Cross-linking efficiency ([1]; 1:2 molar ratio protein:compound, 37° C. 30 min then overnight room temperature, SDS-PAGE): cross-links efficiently
- Cys specific attachment of the compound ([1]; SDS-PAGE after 100 mM DTT): specific for Cysteine 39
Structure (SMILES): CO[C@H]1C[C@@H](C)C/C(C)=C/[C@@H](CCCC(=O)NCCSSc2ccccn2)C(=O)C[C@H](O)[C@@H](C)[C@@H](/C(C)=C/[C@@H]2CC[C@@H](O)[C@H](OC)C2)OC(=O)[C@@H]2CCCCN2C(=O)C(=O)[C@]2(O)O[C@H]1[C@@H](OC)C[C@H]2C [Compound C2-FK506]

- Formation of ternary complex [2]: confirm the formation
Structure (SMILES): CCC(C)(C)C(=O)C(=O)N1CCCC[C@H]1C(=O)OCCCC(=O)NCCSSc1ccccn1 [Compound C2Holt]

Structure (SMILES): CCC(C)(C)C(=O)C(=O)N1CCCC[C@H]1C(=O)O[C@H](CCc1ccc(OC)c(OC)c1)c1cccc(NC(=O)CCSSc2ccccn2)c1 [Compound C3SLF]
- Formation of ternary complex [3]: confirm the formation
- % xlink to KRAS ([4]; FKBP12 + (10 μM)): 47.5%
- % xlink to KRAS ([4]; FKBP12 − (absent)): 9.6%
- Ligand cross-linking efficiency in presence vs absence of FKBP12 [5]: boosted significantly

Structure (SMILES): CCC(C)(C)C(=O)C(=O)N1CCCC[C@H]1C(=O)O[C@H](CCc1ccc(OC)c(OC)c1)c1cccc(NC(=O)CCCSSc2ccccn2)c1 [Compound C4SLF, (R)-3-(3,4-dimethoxyphenyl)-1-(3-(4-(pyridin-2-yldisulfanyl)butanamido)phenyl)propyl (S)-1-(3,3-dimethyl-2-oxopentanoyl)piperidine-2-carboxylate]
- % xlink to KRAS ([4]; FKBP12 + (10 μM)): 69.8%
- % xlink to KRAS ([4]; FKBP12 − (absent)): 7.0%
- Ligand cross-linking efficiency in presence vs absence of FKBP12 [5]: boosted significantly

- Formation of ternary complex [6]: confirm the formation
Structure (SMILES): COC(=O)[C@@H]1CCCN(C(=O)[C@H](Cc2cccc(O)c2)NC(=O)[C@@H](NC(=O)CCCSSc2ccccn2)C(C)C)N1 [SFAC4DS]

- Cross-linking to presenter protein [7]: also cross-linked
- Cross-linking to presenter protein [8]: does not cross-link
- Cross-linking efficiency [9]: cross-links efficiently
Structure (SMILES): COC(=O)[C@@H]1CCCN(C(=O)[C@H](Cc2cccc(O)c2)NC(=O)[C@@H](NC(=O)CCOCCOCCSSc2ccccn2)C(C)C)N1 [SFAX9DS]

— US20210285955A1, “METHODS AND REAGENTS FOR ANALYZING PROTEIN-PROTEIN INTERFACES” (Revolution Medicines, Inc., priority 2017, published 2021)
